Laboratory results taken from PMC12299904, “Purine–Hydrazone Scaffolds as Potential Dual EGFR/HER2 Inhibitors” (Pharmaceuticals, 2025).
Read-outs that look alike come from different tables or passages of the source.

Legend:
SKOV-3 cells = test: In vitro cytotoxicity assay (MTT), SKOV-3; type: cell-based, human; settings: Homo sapiens, 48 h, MTT; for viability at 10 µM: SK-OV-3, read-out: percentage of cell viability, SKOV-3; for IC50: SK-OV-3, 48 h, mean ± SD, three experiments
Protocol: (§1) The selected cell lines include A549, a lung cancer cell line that is characterized by its high expression of EGFR; SKOV-3, an ovarian cancer cell line, selected for its overexpression of both EGFR and HER2; and the breast cancer cell line (SKBR-3), characterized by HER2 overexpression.
(§2) Cells were passaged regularly at around 80% confluency using […] and maintained in 75 cm^2 flasks at 37 °C in a humidified atmosphere containing 5% CO2.
(§3) Approximately 10 × 10^3 cells were seeded per well of the 96-well plates using drug-free media and incubated for 24 h. […] After 48 h of drug exposure, the supernatant was aspirated, and the cells were washed with 100 μL of PBS. The MTT assay was performed by creating a stock solution of MTT at a concentration of 5 mg/mL in PBS. From this stock, a solution of MTT in the cell culture media was prepared to achieve a final concentration of 0.5 mg/mL. […] The MTT solution was thereafter removed, and the generated formazan crystals were dissolved by adding 100 μL of propanol/DMSO (50:50) per well. Absorbance was measured at 570 nm, and IC50 values for each compound were calculated by comparison against negative untreated controls.

A549 cells = test: In vitro cytotoxicity assay (MTT), A549; settings: Homo sapiens, A549, 48 h; for viability at 10 µM: read-out: percentage of cell viability, A549
Protocol: as §1, §2, §3

A2780 cells = test: In vitro cytotoxicity assay (MTT), A2780; type: cell-based; settings: Homo sapiens, 48 h, read-out: percentage of cell viability, A2780
[1] = In vitro cytotoxicity assay (MTT), normal cell line MRC-5; type: cell-based; settings: MRC-5 normal embryonic lung cells, normal human embryonic lung cell line, mean ± SD
Protocol: as §2, §3

SKBR-3 cells = test: In vitro cytotoxicity assay (MTT), SKBR-3; type: cell-based, human; settings: Homo sapiens, SK-BR-3, 48 h, MTT, 48 h; mean ± SD, three experiments
Protocol: as §1, §2, §3

[2] = read-out: Cytotoxicity (IC50), A549, MTT, 48 h, mean ± SD, three experiments

## N#Cc1ccc(/C=N/NC(=O)c2ccc(Nc3ncnc4nc[nH]c34)cc2)cc1 [7a, (E)-4-((7H-Purin-6-yl)amino)-N′-(4-cyanobenzylidene)benzohydrazide]
SKOV-3 cells
  viability at 10 µM: 58%
A549 cells
  viability at 10 µM: 50%

## O=C(N/N=C/c1cccc2ccccc12)c1ccc(Nc2ncnc3nc[nH]c23)cc1 [23a, (E)-4-((7H-Purin-6-yl)amino)-N′-(naphthalen-1-ylmethylene) benzohydrazide]
SKOV-3 cells
  viability at 10 µM: 92%
A549 cells
  viability at 10 µM: 74%

## COc1ccc(/C=N/NC(=O)c2ccc(Nc3ncnc4nc[nH]c34)cc2)cc1 [13a, (E)-4-((7H-Purin-6-yl)amino)-N′-(4-methoxybenzylidene)benzohydrazide]
A549 cells
  viability at 10 µM: 86%

## O=C(N/N=C/c1ccccc1)c1ccc(Nc2ncnc3nc[nH]c23)cc1 [6a, (E)-4-((7H-Purin-6-yl)amino)-N′-benzylidenebenzohydrazide]
SKOV-3 cells
  viability at 10 µM: 85%
A549 cells
  viability at 10 µM: 63%

## O=C(N/N=C/c1ccccc1)c1ccc(Nc2ncnc3c2ncn3C2CCCC2)cc1 [6b, (E)-N′-benzylidene-4-((9-cyclopentyl-9H-purin-6-yl)amino)benzohydrazide]
SKOV-3 cells
  viability at 10 µM: 60%
A2780 cells
  viability at 10 µM: 52%
A549 cells
  viability at 10 µM: 50%

## O=C(N/N=C/c1cccc(C(F)(F)F)c1)c1ccc(Nc2ncnc3nc[nH]c23)cc1 [16a, (E)-4-((7H-Purin-6-yl)amino)-N′-(3-(trifluoromethyl)benzylidene)benzohydrazide]
SKOV-3 cells
  viability at 10 µM: 69%
A549 cells
  viability at 10 µM: 68%

## COc1cccc(/C=N/NC(=O)c2ccc(Nc3ncnc4nc[nH]c34)cc2)c1 [12a, (E)-4-((7H-Purin-6-yl)amino)-N′-(3-methoxybenzylidene)benzohydrazide]
A549 cells
  viability at 10 µM: 75%

## CS(=O)(=O)CCNCc1ccc(-c2ccc3ncnc(Nc4ccc(OCc5cccc(F)c5)c(Cl)c4)c3c2)o1 [Lapatinib, lapatinib, reference compound]
[1]
  IC50 at 48 h: 43.94 ± 0.42 µM
SKOV-3 cells
  IC50: 16.9 ± 2.57 µM
SKBR-3 cells
  IC50: 8.54 ± 0.64 µM
A549 cells; [2]
  IC50: 11.6 ± 0.249 µM

## O=C(N/N=C/c1ccc([N+](=O)[O-])cc1)c1ccc(Nc2ncnc3nc[nH]c23)cc1 [15a, (E)-4-((7H-Purin-6-yl)amino)-N′-(4-nitrobenzylidene)benzohydrazide]
SKOV-3 cells
  viability at 10 µM: 44%
A549 cells
  viability at 10 µM: 49%

## O=C(N/N=C/c1ccc(F)c(C(F)(F)F)c1)c1ccc(Nc2ncnc3nc[nH]c23)cc1 [17a, (E)-4-((7H-Purin-6-yl)amino)-N′-(4-fluoro-3-(trifluoromethyl)benzylidene) benzohydrazide]
SKOV-3 cells
  viability at 10 µM: 63%
A549 cells
  viability at 10 µM: 59%

## O=C(N/N=C/c1cccc(-c2ccccc2)c1)c1ccc(Nc2ncnc3c2ncn3C2CCCC2)cc1 [19b, (E)-N′-((1,1′-biphenyl)-3-ylmethylene)-4-((9-cyclopentyl-9H-purin-6-yl)amino)benzohydrazide]
SKOV-3 cells
  IC50: 15.6 ± 1.48 µM
SKBR-3 cells
  IC50: 3.2 ± 0.899 µM
A549 cells; [2]
  IC50: 1.84 ± 0.082 µM

## C#Cc1cccc(Nc2ncnc3cc(OCCOC)c(OCCOC)cc23)c1 [Erlotinib, erlotinib, reference compound]
[1]
  IC50 at 48 h: 19.36 ± 0.138 µM
SKOV-3 cells
  IC50: 5.18 ± 1.2 µM
  viability at 10 µM: 44%
SKBR-3 cells
  IC50: 5.12 ± 0.879 µM
A2780 cells
  viability at 10 µM: 39%
A549 cells; read-out: Cytotoxicity (IC50), A549
  IC50: 2.42 ± 0.784 µM
A549 cells
  viability at 10 µM: 48%
